Test results reported in US20100130738A1 (priority 2007, published 2010).

How the values were obtained:
PDE4Bcat = molecular target: T1, PDE4Bcat (Homo sapiens, UniProt Q07343); test: Phosphodiesterase inhibitory activity, recombinant PDE4Bcat, [3H]cAMP; type: biochemical; conditions: 30° C. 20 minutes, read-out: IC50 (μmol/L) PDE4
T1 construct: made in house; host or cells: Sf9 insect cells (baculovirus, Bac-to-Bac / Gateway)

[1] = molecular target: T2, PDE3A catalytic domain (PDE3Acat) (Homo sapiens, UniProt Q14432); test: Phosphodiesterase inhibitory activity, recombinant PDE3Acat, [3H]cAMP; type: biochemical; conditions: 30° C. 20 minutes, read-out: IC50 (μmol/L) PDE3
T2 construct: isolate the cDNA of a PDE3A catalytic domain; made in house; host or cells: Sf9 insect cells (baculovirus, Bac-to-Bac / Gateway)
T2 sequence (Q14432 674-1093 limits assumed): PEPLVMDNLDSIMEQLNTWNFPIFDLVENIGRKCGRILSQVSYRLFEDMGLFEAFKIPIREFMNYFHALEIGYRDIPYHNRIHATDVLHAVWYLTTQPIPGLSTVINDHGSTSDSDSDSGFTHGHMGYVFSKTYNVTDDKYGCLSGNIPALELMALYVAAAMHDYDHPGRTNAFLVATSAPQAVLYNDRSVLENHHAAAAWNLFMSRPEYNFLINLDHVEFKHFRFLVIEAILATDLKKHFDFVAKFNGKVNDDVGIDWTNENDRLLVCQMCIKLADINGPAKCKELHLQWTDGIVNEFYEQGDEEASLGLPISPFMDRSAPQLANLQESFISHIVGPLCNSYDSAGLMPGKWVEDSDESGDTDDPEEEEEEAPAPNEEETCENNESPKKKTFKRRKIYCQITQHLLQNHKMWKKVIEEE

[2] = system: histamine-induced bronchoconstriction in guinea pigs; test: Histamine-induced bronchoconstriction reaction in guinea pigs; type: in vivo, guinea pig; conditions: Cavia porcellus, iv, 0.5 min, compound 0.3 mg/kg i.v., measured 30 seconds after administration, histamine 12.5 μg/kg i.v., read-out: Inhibition rate (histamine-induced bronchoconstriction)
Description: Guinea pigs were anesthetized with pentobarbital (30 mg/kg, i.p.). A cannula for intravenous administration, a cannula for collecting blood and measuring blood pressure, and a tracheal cannula were inserted into the left external jugular vein, right internal carotid artery, and trachea, respectively. The guinea pigs were maintained on artificial respiration under conditions of 60 times/min and 10 mL/kg/stroke. The overflowing air from the side branch of the tracheal cannula was measured by a bronchospasm transducer (Ugo-Basile) and recorded on a computer via Power Lab (ADInstruments Japan). The guinea pigs were immobilized with gallamine (10 mg/kg, i.v.), and histamine (12.5 μg/kg, i.v.) was administered at 10-minute intervals. After the histamine-induced bronchoconstriction became stable, the compound (0.3 mg/kg, i.v.) was administered. The histamine-induced bronchoconstriction reaction was measured 30 seconds after the compound administration to examine the bronchoconstriction inhibitory activity of the compound. The bronchoconstriction was recorded as the airflow value, and the results were represented by the ratio of the maximum value of the histamine-induced airflow 30 seconds after administration to the maximum value of the airflow before administration. Also, the test compounds dissolved in DMSO were used. Further, the indications were as follows: inhibition rate≧90% (+++), 90%>inhibition rate≧80% (++), and 80%>inhibition rate≧60% (+).

T1 sequence (Q07343 330-659 limits assumed): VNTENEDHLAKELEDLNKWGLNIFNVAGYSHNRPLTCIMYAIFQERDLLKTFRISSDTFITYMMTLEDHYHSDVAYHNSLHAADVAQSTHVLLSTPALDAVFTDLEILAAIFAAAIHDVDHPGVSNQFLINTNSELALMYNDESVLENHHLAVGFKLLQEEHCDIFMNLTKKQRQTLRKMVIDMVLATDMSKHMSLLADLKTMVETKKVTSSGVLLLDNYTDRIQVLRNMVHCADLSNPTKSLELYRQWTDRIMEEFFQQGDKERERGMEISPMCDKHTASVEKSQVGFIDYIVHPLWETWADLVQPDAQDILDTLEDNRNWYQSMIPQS

Structure (SMILES)	IC50 (PDE4Bcat) [µmol/L]	IC50 [1] [µmol/L]	inhibition in vivo at 0.3 mg/kg [2] [%]
COc1ccc(C2=NN(CCCCOc3ccc(C4=NNC(=O)CC4C)c(F)c3F)C(=O)C2(C)C)n2cc(C(F)(F)F)nc12 (stereo not drawn) [Example 234, 2-[4-[2,3-Difluoro-4-(4-methyl-6-oxo-1,4,5,6-tetrahydropyridazin-3-yl)phenoxy]butyl]-5-(8-methoxy-2-trifluoromethylimidazo[1,2-a]pyridin-5-yl)-4,4-dimethyl-2,4-dihydro-pyrazol-3-one]	< 0.01	< 0.01	80 to 90
COc1ccc(C2=NN(CCCCOc3ccc(C4=NNC(=O)CC4C)c(F)c3F)C(=O)C2(C)C)c2ccc(C)nc12 (stereo not drawn) [Example 196, 2-[4-[2,3-Difluoro-4-(4-methyl-6-oxo-1,4,5,6-tetrahydropyridazin-3-yl)phenoxy]butyl]-5-(8-methoxy-2-methylquinolin-5-yl)-4,4-dimethyl-2,4-dihydro-pyrazol-3-one]	0.01 to 0.1	< 0.01	≥ 90
CCc1ccc2c(C3=NN(CCCCOc4ccc(C5=NNC(=O)CC5C)cc4)C(=O)C3(C)C)ccc(OC)c2n1 (stereo not drawn) [Example 194, 5-(2-Ethyl-8-methoxyquinolin-5-yl)-2-[4-[4-(4-methyl-6-oxo-1,4,5,6-tetrahydropyridazin-3-yl)phenoxy]butyl]-4,4-dimethyl-2,4-dihydro-pyrazol-3-one]	0.01 to 0.1	0.01 to 0.1	≥ 90
COc1ccc(C2=NN(CCCCOc3ccc(C4=NNC(=O)CC4C)cc3F)C(=O)C2(C)C)c2cccnc12 (stereo not drawn) [Example 215, 2-[4-[2-Fluoro-4-(4-methyl-6-oxo-1,4,5,6-tetrahydropyridazin-3-yl)phenoxy]butyl]-5-(8-methoxyquinolin-5-yl)-4,4-dimethyl-2,4-dihydro-pyrazol-3-one]	0.01 to 0.1	< 0.01	≥ 90
COc1ccc(C2=NN(CCCCOc3ccc(C4=NNC(=O)C4(C)C)c(F)c3F)C(=O)C2(C)C)n2cc(C(F)(F)F)nc12 [Example 236, 2-[4-[2,3-Difluoro-4-(4,4-dimethyl-5-oxo-4,5-dihydro-1H-pyrazol-3-yl)phenoxy]butyl]-5-(8-methoxy-2-trifluoromethylimidazo[1,2-a]pyridin-5-yl)-4,4-dimethyl-2,4-dihydro-pyrazol-3-one]	< 0.01	0.01 to 0.1	60 to 80
COc1ccc(C2=NN(CCCCOc3ccc(C4=NNC(=O)CC4)c(F)c3F)C(=O)C2(C)C)c2[nH]c(C(F)(F)F)nc12 [Example 219, 2-[4-[2,3-Difluoro-4-(6-oxo-1,4,5,6-tetrahydropyridazin-3-yl)phenoxy]butyl]-5-(4-methoxy-2-trifluoromethyl-1H-benzo[d]imidazol-7-yl)-4,4-dimethyl-2,4-dihydro-pyrazol-3-one]	< 0.01	< 0.01	≥ 90
COc1ccc(C2=NN(CCCCOc3ccc(C4=NNC(=O)CC4C)c(F)c3F)C(=O)C2(C)C)c2[nH]c(C(F)(F)F)nc12 (stereo not drawn) [Example 221, 2-[4-[2,3-Difluoro-4-(4-methyl-6-oxo-1,4,5,6-tetrahydropyridazin-3-yl)phenoxy]butyl]-5-(4-methoxy-2-trifluoromethyl-1H-benzo[d]imidazol-7-yl)-4,4-dimethyl-2,4-dihydro-pyrazol-3-one]	< 0.01	< 0.01	≥ 90
COc1ccc(C2=NN(CCCCOc3ccc(C4=NNC(=O)CC4C)c(F)c3F)C(=O)C2(C)C)c2cccnc12 (stereo not drawn) [Example 214, 2-[4-[2,3-Difluoro-4-(4-methyl-6-oxo-1,4,5,6-tetrahydropyridazin-3-yl)phenoxy]butyl]-5-(8-methoxyquinolin-5-yl)-4,4-dimethyl-2,4-dihydro-pyrazol-3-one]	0.01 to 0.1	< 0.01	≥ 90
CCc1ccc2c(C3=NN(CCCCOc4ccc(C5=NNC(=O)CC5)cc4OC)C(=O)C3(C)C)ccc(OC)c2n1 [Example 238]	0.1 to 1	0.1 to 1	60 to 80
